For 28 compounds, activity coefficient results are on record in the NIST ThermoML archive (doi:10.1016/j.jct.2013.09.007).

The structures appear in SMILES notation. Numbers after ± are expanded uncertainties.

This data set can be described thus: activity coefficient (dimensionless); of the first substance listed, at infinite dilution; xn = mol fraction of the nth substance listed. Conditions: 101 kPa, Liquid, Chromatography, x1 = 0.

Regarding `C=C(C)c1ccccc1` [(1-methylethenyl)benzene] + CCCC[n+]1cccc(C)c1.N#C[N-]C#N, the activity coefficient is, setting by setting: (328.15 K) 2.1 ± 0.14; (338.15 K) 2.21 ± 0.15; (348.15 K) 2.33 ± 0.16; (358.15 K) 2.44 ± 0.17; (368.15 K) 2.55 ± 0.17.

Regarding `CC(C)=O` [acetone] + CCCC[n+]1cccc(C)c1.N#C[N-]C#N, the activity coefficient (328.15 K) was 0.946 ± 0.06; the activity coefficient (338.15 K) was determined as 0.968 ± 0.061; the activity coefficient (348.15 K) was 0.999 ± 0.062; the activity coefficient (358.15 K) turned out to be 1.03 ± 0.06; the activity coefficient (368.15 K) came to 1.04 ± 0.07.

For the compound `CC#N` [acetonitrile] + CCCC[n+]1cccc(C)c1.N#C[N-]C#N, the activity coefficient by setting is: (338.15 K) 0.736 ± 0.049; (348.15 K) 0.748 ± 0.049; (358.15 K) 0.76 ± 0.05; (368.15 K) 0.764 ± 0.05.

In the case of `c1ccccc1` [benzene] + CCCC[n+]1cccc(C)c1.N#C[N-]C#N, the activity coefficient (328.15 K) stood at 1.37 ± 0.09; the activity coefficient (338.15 K) was found to be 1.4 ± 0.09; the activity coefficient (348.15 K) is 1.43 ± 0.09; the activity coefficient (358.15 K) was found to be 1.47 ± 0.1; the activity coefficient (368.15 K) came out at 1.5 ± 0.1.

For `CCCCO` [butan-1-ol] + CCCC[n+]1cccc(C)c1.N#C[N-]C#N, the activity coefficient stood at 0.88 ± 0.056 (338.15 K), 0.855 ± 0.055 (348.15 K), 0.84 ± 0.054 (358.15 K) and 0.814 ± 0.053 (368.15 K).

As for `C1CCCCCC1` [cycloheptane] + CCCC[n+]1cccc(C)c1.N#C[N-]C#N, the activity coefficient runs as follows: (308.15 K) 27.3 ± 1.9; (318.15 K) 25.2 ± 1.7; (328.15 K) 23.6 ± 1.6; (338.15 K) 22.1 ± 1.5; (348.15 K) 20.7 ± 1.4; (358.15 K) 19.5 ± 1.3. For the same compound, under “368.15 K”, the activity coefficient is 18.5 ± 1.3.

As for `C1CCCCC1` [cyclohexane] + CCCC[n+]1cccc(C)c1.N#C[N-]C#N, the activity coefficient reads like this: (308.15 K) 23 ± 1.6; (318.15 K) 21.2 ± 1.4; (328.15 K) 19.8 ± 1.4; (338.15 K) 18.5 ± 1.3; (348.15 K) 17.4 ± 1.2; (358.15 K) 16.5 ± 1.1. For the setting “368.15 K”, the activity coefficient was 15.6 ± 1.1.

Consider `O=C1CCCCC1` [cyclohexanone] + CCCC[n+]1cccc(C)c1.N#C[N-]C#N, for which the activity coefficient was 0.928 ± 0.059 (338.15 K), 0.96 ± 0.06 (348.15 K), 0.988 ± 0.062 (358.15 K) and 1.01 ± 0.06 (368.15 K).

In the case of `C1=CCCCC1` [cyclohexene] + CCCC[n+]1cccc(C)c1.N#C[N-]C#N, the activity coefficient runs as follows: (308.15 K) 9.2 ± 0.63; (318.15 K) 8.87 ± 0.61; (328.15 K) 8.55 ± 0.58; (338.15 K) 8.27 ± 0.56; (348.15 K) 7.99 ± 0.54; (358.15 K) 7.76 ± 0.53. Besides, where the note is “368.15 K”, the activity coefficient was determined as 7.54 ± 0.51.

As for `C1CCCCCCC1` [cyclooctane] + CCCC[n+]1cccc(C)c1.N#C[N-]C#N, the activity coefficient (308.15 K) was 35.1 ± 2.4; the activity coefficient (318.15 K) is 32 ± 2.2; the activity coefficient (328.15 K) was 29.7 ± 2; the activity coefficient (338.15 K) is 27.8 ± 1.9; the activity coefficient (348.15 K) is 25.8 ± 1.8; the activity coefficient (358.15 K) amounted to 24.2 ± 1.7. The activity coefficient (368.15 K) came out at 22.7 ± 1.6.

With `C1CCCC1` [cyclopentane] + CCCC[n+]1cccc(C)c1.N#C[N-]C#N, the activity coefficient is, setting by setting: (308.15 K) 15.1 ± 1; (318.15 K) 14.2 ± 1; (328.15 K) 13.4 ± 0.9; (338.15 K) 12.6 ± 0.9; (348.15 K) 11.9 ± 0.8; (358.15 K) 11.3 ± 0.8. Further, the activity coefficient (368.15 K) turned out to be 10.9 ± 0.7.

As for `CCCCCCCCCC` [decane] + CCCC[n+]1cccc(C)c1.N#C[N-]C#N, the activity coefficient reads like this: (308.15 K) 275 ± 19; (318.15 K) 244 ± 17; (328.15 K) 219 ± 15; (338.15 K) 198 ± 14; (348.15 K) 179 ± 12; (358.15 K) 163 ± 11. Also, the activity coefficient (368.15 K) was determined as 149 ± 10.

With `CCOCC` [diethyl ether] + CCCC[n+]1cccc(C)c1.N#C[N-]C#N, the activity coefficient runs as follows: (308.15 K) 6.37 ± 0.43; (318.15 K) 6.33 ± 0.43; (328.15 K) 6.29 ± 0.43; (338.15 K) 6.26 ± 0.43; (348.15 K) 6.22 ± 0.42; (358.15 K) 6.19 ± 0.42. For the same compound, for the setting “368.15 K”, the activity coefficient stood at 6.15 ± 0.42.

Regarding `CCCOCCC` [dipropyl ether] + CCCC[n+]1cccc(C)c1.N#C[N-]C#N, the activity coefficient by setting is: (308.15 K) 18.3 ± 1.3; (318.15 K) 17.7 ± 1.2; (328.15 K) 17.2 ± 1.2; (338.15 K) 16.6 ± 1.1; (348.15 K) 16.3 ± 1.1; (358.15 K) 15.6 ± 1.1. Moreover, where the note is “368.15 K”, the activity coefficient is 15.2 ± 1.

As to `CCO` [ethanol] + CCCC[n+]1cccc(C)c1.N#C[N-]C#N, the activity coefficient (338.15 K) was 0.549 ± 0.04, the activity coefficient (348.15 K) was 0.545 ± 0.04, the activity coefficient (358.15 K) came out at 0.541 ± 0.04 and the activity coefficient (368.15 K) came out at 0.537 ± 0.039.

Regarding `CCc1ccccc1` [ethylbenzene] + CCCC[n+]1cccc(C)c1.N#C[N-]C#N, the activity coefficient was 3.21 ± 0.22 (328.15 K); 3.26 ± 0.22 (338.15 K); 3.32 ± 0.23 (348.15 K); 3.35 ± 0.23 (358.15 K); 3.41 ± 0.23 (368.15 K).

For the compound `CCCCCCC` [heptane] + CCCC[n+]1cccc(C)c1.N#C[N-]C#N, the activity coefficient worked out at 82.8 ± 5.7 (308.15 K); 75.7 ± 5.2 (318.15 K); 69.9 ± 4.8 (328.15 K); 64.3 ± 4.4 (338.15 K); 59.4 ± 4.1 (348.15 K); 55.4 ± 3.8 (358.15 K). Besides, where the note is “368.15 K”, the activity coefficient turned out to be 51.7 ± 3.5.

In the case of `C=CCCCC` [hex-1-ene] + CCCC[n+]1cccc(C)c1.N#C[N-]C#N, the activity coefficient runs as follows: (308.15 K) 22.4 ± 1.5; (318.15 K) 21.4 ± 1.5; (328.15 K) 20.4 ± 1.4; (338.15 K) 19.5 ± 1.3; (348.15 K) 18.7 ± 1.3; (358.15 K) 17.8 ± 1.2. The activity coefficient (368.15 K) was 17.1 ± 1.2.

Turning to `CCCCCC` [hexane] + CCCC[n+]1cccc(C)c1.N#C[N-]C#N, the activity coefficient turned out to be 56.1 ± 3.8 (308.15 K); 51.7 ± 3.5 (318.15 K); 47.8 ± 3.3 (328.15 K); 44.3 ± 3 (338.15 K); 41.3 ± 2.8 (348.15 K); 38.6 ± 2.6 (358.15 K). Further, the activity coefficient (368.15 K) stood at 36 ± 2.5.

For `CC1CCCCC1` [methylcyclohexane] + CCCC[n+]1cccc(C)c1.N#C[N-]C#N, the activity coefficient by setting is: (308.15 K) 34.1 ± 2.3; (318.15 K) 31.5 ± 2.2; (328.15 K) 29.3 ± 2; (338.15 K) 27.3 ± 1.9; (348.15 K) 25.5 ± 1.7; (358.15 K) 23.9 ± 1.6. The activity coefficient (368.15 K) worked out at 22.6 ± 1.5.

On to `CCCCCCCCC` [nonane] + CCCC[n+]1cccc(C)c1.N#C[N-]C#N, for which the activity coefficient was 182 ± 13 (308.15 K); 162 ± 11 (318.15 K); 148 ± 10 (328.15 K); 134 ± 9 (338.15 K); 122 ± 8 (348.15 K); 112 ± 8 (358.15 K). In addition, the activity coefficient (368.15 K) was 103 ± 7.

On to `C=CCCCCCC` [oct-1-ene] + CCCC[n+]1cccc(C)c1.N#C[N-]C#N, for which the activity coefficient by setting is: (308.15 K) 49.7 ± 3.4; (318.15 K) 46.7 ± 3.2; (328.15 K) 44 ± 3; (338.15 K) 41.8 ± 2.9; (348.15 K) 39.5 ± 2.7; (358.15 K) 37.6 ± 2.6. Under “368.15 K”, the activity coefficient came out at 35.7 ± 2.4.

Turning to `CCCCCCCC` [octane] + CCCC[n+]1cccc(C)c1.N#C[N-]C#N, the activity coefficient stood at 123 ± 8 (308.15 K); 111 ± 8 (318.15 K); 101 ± 7 (328.15 K); 92.7 ± 6.4 (338.15 K); 85.2 ± 5.8 (348.15 K); 79 ± 5.4 (358.15 K). Besides, under “368.15 K”, the activity coefficient worked out at 73.3 ± 5.

Consider `CCCC(C)=O` [pentan-2-one] + CCCC[n+]1cccc(C)c1.N#C[N-]C#N, for which the activity coefficient runs as follows: (328.15 K) 1.81 ± 0.12; (338.15 K) 1.84 ± 0.12; (348.15 K) 1.89 ± 0.13; (358.15 K) 1.93 ± 0.13; (368.15 K) 1.96 ± 0.13.

On to `CCC(=O)CC` [pentan-3-one] + CCCC[n+]1cccc(C)c1.N#C[N-]C#N, for which the activity coefficient by setting is: (328.15 K) 1.84 ± 0.12; (338.15 K) 1.89 ± 0.13; (348.15 K) 1.94 ± 0.13; (358.15 K) 1.97 ± 0.13; (368.15 K) 2.01 ± 0.14.

On to `CCCO` [propan-1-ol] + CCCC[n+]1cccc(C)c1.N#C[N-]C#N, for which the activity coefficient was determined as 0.678 ± 0.046 (338.15 K), 0.663 ± 0.045 (348.15 K), 0.65 ± 0.044 (358.15 K) and 0.638 ± 0.044 (368.15 K).

Take `c1ccncc1` [pyridine] + CCCC[n+]1cccc(C)c1.N#C[N-]C#N: the activity coefficient (338.15 K) came to 0.718 ± 0.048, the activity coefficient (348.15 K) was 0.731 ± 0.048, the activity coefficient (358.15 K) turned out to be 0.754 ± 0.05 and the activity coefficient (368.15 K) was 0.768 ± 0.05.

As for `C=Cc1ccccc1` [styrene] + CCCC[n+]1cccc(C)c1.N#C[N-]C#N, the activity coefficient by setting is: (328.15 K) 1.39 ± 0.09; (338.15 K) 1.44 ± 0.09; (348.15 K) 1.49 ± 0.1; (358.15 K) 1.54 ± 0.1; (368.15 K) 1.59 ± 0.11.
